The record followed here is patent US10202368B2, “CXCR7 receptor modulators” (IDORSIA PHARMACEUTICALS LTD, priority 2014, dated 2019).

Sequence of CXCR7 (P25106 whole entry): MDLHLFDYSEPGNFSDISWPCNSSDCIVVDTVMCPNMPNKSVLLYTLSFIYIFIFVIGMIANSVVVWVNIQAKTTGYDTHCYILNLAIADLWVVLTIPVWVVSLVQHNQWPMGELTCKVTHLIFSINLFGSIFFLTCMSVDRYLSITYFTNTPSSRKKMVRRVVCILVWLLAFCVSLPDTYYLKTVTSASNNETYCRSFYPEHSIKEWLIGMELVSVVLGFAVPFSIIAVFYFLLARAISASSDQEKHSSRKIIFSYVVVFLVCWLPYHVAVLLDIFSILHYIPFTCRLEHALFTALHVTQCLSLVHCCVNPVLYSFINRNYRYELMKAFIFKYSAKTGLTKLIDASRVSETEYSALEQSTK
Sequence of CXCR7 (P32121 whole entry partner): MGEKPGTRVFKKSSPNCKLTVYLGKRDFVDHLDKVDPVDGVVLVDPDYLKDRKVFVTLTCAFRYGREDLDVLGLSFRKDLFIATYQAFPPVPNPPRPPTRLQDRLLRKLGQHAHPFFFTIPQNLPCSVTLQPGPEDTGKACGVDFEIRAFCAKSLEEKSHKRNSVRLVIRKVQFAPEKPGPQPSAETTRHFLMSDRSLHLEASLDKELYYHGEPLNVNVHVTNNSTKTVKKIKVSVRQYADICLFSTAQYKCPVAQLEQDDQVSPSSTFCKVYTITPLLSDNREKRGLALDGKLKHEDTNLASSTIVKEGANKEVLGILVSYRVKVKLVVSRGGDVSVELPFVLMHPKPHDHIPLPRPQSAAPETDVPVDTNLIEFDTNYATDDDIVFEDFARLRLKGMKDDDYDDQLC

The target of the assay is CXCR7 (Homo sapiens (Human), UniProt P25106). Description: PathHunter CHO-K1 CXCR7 β-arrestin assay (agonistic activity). The class given is cell-based. The following applies: β-arrestin recruitment in PathHunter CHO-K1 CXCR7 β-arrestin cells, 90 minutes at 37° C., geometric mean values. The method, then:
The CXCI12 receptor and CXCR7 agonistic activities of the compounds of formula (I) are determined in accordance with the following experimental method.
The assay is using the PathHunter™ CHO-K1 CXCR7 β-arrestin cell line from DiscoverX. The system is based on the Enzyme Fragment Complementation Technology. Two complementing fragments of the β-galactosidase enzyme are expressed within stably transfected cells. The larger portion of β-gal, termed EA for Enzyme Acceptor, is fused to the C-terminus of b-arrestin 2. The smaller fragment, termed ProLink™ tag, is fused to CXCR7 at the C-terminus. Upon activation, b-arrestin is recruited which forces the interaction of ProLink and EA, allowing complementation of the two fragments of b-gal and the formation of a functional enzyme which is capable of hydrolysing the substrate and generating a chemiluminescent signal.
CHO-K1 CXCR7 β-arrestin cells are detached from culture dishes with a cell dissociation buffer (Invitrogen, #13151-014) and collected in growing medium (F12 HAMS 90% (v/v)/FCS 10% (v/v), Penicillin/streptomycin 1% (v/v)). 5000 cells per well (in 20 μl) are seeded in a 384 well plate (white-walled, clear bottom; BD Falcon #353274). The plate is incubated at 37° C./5% CO2 for 24 hours. Medium is then replaced by 20 μl OPTIMEM (Invitrogen #31985) for 3 to 4 hours. Test compounds are dissolved at 10 mM in DMSO and serially diluted in DMSO to 200× of the final concentration for dose response curves. Compounds are then diluted 1:33.3 in HBSS1X. 5 μl/well of HBSS1X/20 mM HEPES/0.2% BSA are added to the assay plate followed by addition of 5 μl/well of diluted compounds. CXCL12 (Peprotech #300-28A) may be used as a reference agonist. The plate is incubated for 90 minutes at 37° C. 12 μl of detection reagent (Path Hunter Detection Kit, DiscoveRx, #93-0001) is transferred to the assay plate and to the plate is incubated for 1 hour at room temperature. Luminescent signal is read in a microplate reader (FLUOstar Optima, bmg). The calculated EC50 values may fluctuate depending on the daily cellular assay performance. Fluctuations of this kind are known to those skilled in the art. Average EC50 values from several measurements are given as geometric mean values.
Usually EC50 stands for the concentration that produces a half-maximal response. Higher therefore signals weaker potency. The molecule `CCN1CCN(CC)c2c(NCC(=O)N(CCN3CCCC3)Cc3ncccc3C(F)(F)F)cccc2C1=O` [Example 48, 2-(1,4-Diethyl-5-oxo-2,3,4,5-tetrahydro-1H-benzo[e][1,4]diazepin-9-ylamino)-N-(2-pyrrolidin-1-yl-ethyl)-N-(3-trifluoromethyl-pyridin-2-ylmethyl)-acetamide] registered a concentration for a half-maximal effect (EC50) of 47 nM. As to `CN(C)CCN(Cc1ccccc1C(F)(F)F)C(=O)CNc1cccc2c1N(C)CCN(CC1CC1)C2` [Example 49, 2-(4-Cyclopropylmethyl-1-methyl-2,3,4,5-tetrahydro-1H-benzo[e][1,4]diazepin-9-ylamino)-N-(2-dimethylamino-ethyl)-N-(2-trifluoromethyl-benzyl)-acetamide], a half-maximal response (EC50) required 2 nM. `CC(C)N(CCN(Cc1ccccc1C(F)(F)F)C(=O)CNc1cccc2c1N(C)CCN(CC1CC1)C2)C(=O)OC(C)(C)C` [Example 50, {2-[[2-(4-Cyclopropylmethyl-1-methyl-2,3,4,5-tetrahydro-1H-benzo[e][1,4]diazepin-9-ylamino)-acetyl]-(2-trifluoromethyl-benzyl)-amino]-ethyl}-isopropyl-carbamic acid tert-butyl ester]: the EC50 turned out to be 340 nM. As to `CN1CCN(CC2CC2)Cc2cccc(NCC(=O)N(CCN3CCCC3)Cc3ncccc3C(F)(F)F)c21` [Example 51, 2-(4-Cyclopropylmethyl-1-methyl-2,3,4,5-tetrahydro-1H-benzo[e][1,4]diazepin-9-ylamino)-N-(2-pyrrolidin-1-yl-ethyl)-N-(3-trifluoromethyl-pyridin-2-ylmethyl)-acetamide], the EC50 came to 1 nM. Against the preceding molecule, the EC50 is about 340-fold lower.

In turn, `CC(C)NCCN(Cc1ccccc1C(F)(F)F)C(=O)CNc1cccc2c1N(C)CCN(CC1CC1)C2` [Example 52, 2-(4-Cyclopropylmethyl-1-methyl-2,3,4,5-tetrahydro-1H-benzo[e][1,4]diazepin-9-ylamino)-N-(2-isopropylamino-ethyl)-N-(2-trifluoromethyl-benzyl)-acetamide] yielded an EC50 of 1 nM. Take `CCN1CCOc2c(NCC(=O)N(CCNC(C)C)Cc3ccccc3C(F)(F)F)cccc2C1=O` [Example 56, 2-(4-Ethyl-5-oxo-2,3,4,5-tetrahydro-benzo[f][1,4]oxazepin-9-ylamino)-N-(2-isopropylamino-ethyl)-N-(2-trifluoromethyl-benzyl)-acetamide]: the EC50 came to 16 nM. In turn, `CCN1CCOc2c(NCC(=O)N(CCN3CCCC3)Cc3ncccc3C(F)(F)F)cccc2C1=O` [Example 57, 2-(4-Ethyl-5-oxo-2,3,4,5-tetrahydro-benzo[f][1,4]oxazepin-9-ylamino)-N-(2-pyrrolidin-1-yl-ethyl)-N-(3-trifluoromethyl-pyridin-2-ylmethyl)-acetamide] showed an EC50 of 60 nM. For the molecule `CCN1CCOc2c(NCC(=O)N(CCN(C)C)Cc3ncccc3C(F)(F)F)cccc2C1=O` [Example 58, N-(2-Dimethylamino-ethyl)-2-(4-ethyl-5-oxo-2,3,4,5-tetrahydro-benzo[f][1,4]oxazepin-9-ylamino)-N-(3-trifluoromethyl-pyridin-2-ylmethyl)-acetamide], it took 74 nM to reach a half-maximal effect (EC50). This EC50 and that of the molecule before are within 1.5-fold of each other. For the molecule `CCN1CCOc2c(NCC(=O)N(CCN3CCCC3)Cc3ncccc3Cl)cccc2C1=O` [Example 59, N-(3-Chloro-pyridin-2-ylmethyl)-2-(4-ethyl-5-oxo-2,3,4,5-tetrahydro-benzo[f][1,4]oxazepin-9-ylamino)-N-(2-pyrrolidin-1-yl-ethyl)-acetamide], the EC50 amounted to 260 nM.

In the case of `CCN1CCOc2c(NCC(=O)N(CCN(C)C)Cc3ncccc3Cl)cccc2C1=O` [Example 60, N-(3-Chloro-pyridin-2-ylmethyl)-N-(2-dimethylamino-ethyl)-2-(4-ethyl-5-oxo-2,3,4,5-tetrahydro-benzo[f][1,4]oxazepin-9-ylamino)-acetamide], a half-maximal effect (EC50) was put at 260 nM. The figure for `CN(C)CCN(Cc1ccccc1C(F)(F)F)C(=O)CNc1cccc2c1OCCN(CC1CC1)C2=O` [Example 61, 2-(4-Cyclopropylmethyl-5-oxo-2,3,4,5-tetrahydro-benzo[f][1,4]oxazepin-9-ylamino)-N-(2-dimethylamino-ethyl)-N-(2-trifluoromethyl-benzyl)-acetamide] is 9 nM; for `CC(C)NCCN(Cc1ccccc1C(F)(F)F)C(=O)CNc1cccc2c1OCCN(CC1CC1)C2=O` [Example 62, 2-(4-Cyclopropylmethyl-5-oxo-2,3,4,5-tetrahydro-benzo[f][1,4]oxazepin-9-ylamino)-N-(2-isopropylamino-ethyl)-N-(2-trifluoromethyl-benzyl)-acetamide] it is 5 nM. Consider `CC(C)(C)NCCN(Cc1ccccc1C(F)(F)F)C(=O)CNc1cccc2c1OCCN(CC1CC1)C2=O` [Example 63, N-(2-tert-Butylamino-ethyl)-2-(4-cyclopropylmethyl-5-oxo-2,3,4,5-tetrahydro-benzo[f][1,4]oxazepin-9-ylamino)-N-(2-trifluoromethyl-benzyl)-acetamide], for which the EC50 was 2 nM. Compared with the last molecule, the EC50 is about 2.5-fold lower.

Turning to `O=C(CNc1cccc2c1OCCN(CC1CC1)C2=O)N(CCN1CCCC1)Cc1ncccc1C(F)(F)F` [Example 64, 2-(4-Cyclopropylmethyl-5-oxo-2,3,4,5-tetrahydro-benzo[f][1,4]oxazepin-9-ylamino)-N-(2-pyrrolidin-1-yl-ethyl)-N-(3-trifluoromethyl-pyridin-2-ylmethyl)-acetamide], the 50% effective concentration (EC50) was determined as 7 nM. In turn, `O=C(CNc1cccc2c1OCC(=O)N(CC1CC1)C2)N(CCN1CCCC1)Cc1ncccc1C(F)(F)F` [Example 65, 2-(4-cyclopropylmethyl-3-oxo-2,3,4,5-tetrahydro-benzo[f][1,4]oxazepin-9-ylamino)-N-(2-pyrrolidin-1-yl-ethyl)-N-(3-trifluoromethyl-pyridin-2-ylmethyl)-acetamide] gave an EC50 of 18 nM. This EC50 is about 2.6-fold higher than that of the molecule before.

In turn, `CC(C)(C)NCCN(Cc1ccccc1C(F)(F)F)C(=O)CNc1cccc2c1OCC(=O)N(CC1CC1)C2` [Example 66, N-(2-tert-butylamino-ethyl)-2-(4-cyclopropylmethyl-3-oxo-2,3,4,5-tetrahydro-benzo[f][1,4]oxazepin-9-ylamino)-N-(2-trifluoromethyl-benzyl)-acetamide] gave an EC50 of 18 nM. That is a double-digit nanomolar value.

`CN(C)CCN(Cc1ccccc1C(F)(F)F)C(=O)CNc1cccc2c1OCC(=O)N(CC1CC1)C2` [Example 67, 2-(4-Cyclopropylmethyl-3-oxo-2,3,4,5-tetrahydro-benzo[f][1,4]oxazepin-9-ylamino)-N-(2-dimethylamino-ethyl)-N-(2-trifluoromethyl-benzyl)-acetamide]: the EC50 came to 37 nM. In turn, `CC(C)NCCN(Cc1ccccc1C(F)(F)F)C(=O)CNc1cccc2c1OCC(=O)N(CC1CC1)C2` [Example 68, 2-(4-Cyclopropylmethyl-3-oxo-2,3,4,5-tetrahydro-benzo[f][1,4]oxazepin-9-ylamino)-N-(2-isopropylamino-ethyl)-N-(2-trifluoromethyl-benzyl)-acetamide] registered an EC50 of 15 nM.

In turn, `CCN1CCOc2c(cccc2NCC(=O)N(CCN(C(=O)OC(C)(C)C)C(C)C)Cc2ccccc2C(F)(F)F)C1` [Example 69, {2-[[2-(4-Ethyl-2,3,4,5-tetrahydro-benzo[f][1,4]oxazepin-9-ylamino)-acetyl]-(2-trifluoromethyl-benzyl)-amino]-ethyl}-isopropyl-carbamic acid tert-butyl ester] displayed an EC50 of 430 nM.

On to `CCN1CCOc2c(cccc2NCC(=O)N(CCNC(C)(C)C)Cc2ccccc2C(F)(F)F)C1` [Example 70, N-(2-tert-Butylamino-ethyl)-2-(4-ethyl-2,3,4,5-tetrahydro-benzo[f][1,4]oxazepin-9-ylamino)-N-(2-trifluoromethyl-benzyl)-acetamide], for which the EC50 is 4 nM. `CCN1CCOc2c(cccc2NCC(=O)N(CCNC(C)C)Cc2ccccc2C(F)(F)F)C1` [Example 71, 2-(4-Ethyl-2,3,4,5-tetrahydro-benzo[f][1,4]oxazepin-9-ylamino)-N-(2-isopropylamino-ethyl)-N-(2-trifluoromethyl-benzyl)-acetamide] displayed an EC50 of 4 nM. In other words, the single-digit nanomolar range. The figure for `CCN1CCOc2c(cccc2NCC(=O)N(CCN(C)C)Cc2ncccc2C(F)(F)F)C1` [Example 72, N-(2-Dimethylamino-ethyl)-2-(4-ethyl-2,3,4,5-tetrahydro-benzo[f][1,4]oxazepin-9-ylamino)-N-(3-trifluoromethyl-pyridin-2-ylmethyl)-acetamide] is 6 nM; for `CCN1CCOc2c(cccc2NCC(=O)N(CCN(C)C)Cc2ncccc2C)C1` [Example 73, N-(2-Dimethylamino-ethyl)-2-(4-ethyl-2,3,4,5-tetrahydro-benzo[f][1,4]oxazepin-9-ylamino)-N-(3-methyl-pyridin-2-ylmethyl)-acetamide] it is 59 nM.
